# Results as given in patent publication US7517884B2 (Kalypsys Inc., priority 1998, dated 2009).
# Experiments:
# Assay type in all cases: cell-based, murine and human
# Details in all cases: GAL4-PPAR LBD chimera
# PPAR-alpha = molecular target: T1, PPAR-alpha (UniProt Q07869); assay: PPAR-alpha transactivation assay (GAL4 chimera, luciferase reporter) in CV-1 cells
# T1 sequence (Q07869 1-468): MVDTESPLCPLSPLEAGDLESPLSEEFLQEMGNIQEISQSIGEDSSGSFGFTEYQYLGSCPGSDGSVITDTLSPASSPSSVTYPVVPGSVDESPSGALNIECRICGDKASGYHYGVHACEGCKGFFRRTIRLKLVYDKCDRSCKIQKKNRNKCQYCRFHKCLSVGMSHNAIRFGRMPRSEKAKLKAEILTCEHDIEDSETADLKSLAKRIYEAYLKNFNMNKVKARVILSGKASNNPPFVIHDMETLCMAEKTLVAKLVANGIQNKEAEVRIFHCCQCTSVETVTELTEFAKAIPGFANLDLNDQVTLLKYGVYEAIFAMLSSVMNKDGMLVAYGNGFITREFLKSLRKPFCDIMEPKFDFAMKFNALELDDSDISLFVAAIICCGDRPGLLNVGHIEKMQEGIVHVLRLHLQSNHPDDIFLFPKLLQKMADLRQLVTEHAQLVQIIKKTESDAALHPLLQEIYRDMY
# Outline: (§1)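 CV-1 cells transiently transfected with murine or human PPAR-alpha, -gamma or -delta ligand-binding domain fused to GAL4 DNA-binding domain plus a GAL4-site luciferase reporter. After replating in phenol-red-free DME with 5% delipidated calf serum, cells were exposed to compound 20-24 h; luciferase read-out gave EC50.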
# PPAR-gamma = molecular target: T2, PPAR-gamma (UniProt P37231); assay: PPAR-gamma transactivation assay (GAL4 chimera, luciferase reporter) in CV-1 cells
# T2 sequence (P37231 1-505): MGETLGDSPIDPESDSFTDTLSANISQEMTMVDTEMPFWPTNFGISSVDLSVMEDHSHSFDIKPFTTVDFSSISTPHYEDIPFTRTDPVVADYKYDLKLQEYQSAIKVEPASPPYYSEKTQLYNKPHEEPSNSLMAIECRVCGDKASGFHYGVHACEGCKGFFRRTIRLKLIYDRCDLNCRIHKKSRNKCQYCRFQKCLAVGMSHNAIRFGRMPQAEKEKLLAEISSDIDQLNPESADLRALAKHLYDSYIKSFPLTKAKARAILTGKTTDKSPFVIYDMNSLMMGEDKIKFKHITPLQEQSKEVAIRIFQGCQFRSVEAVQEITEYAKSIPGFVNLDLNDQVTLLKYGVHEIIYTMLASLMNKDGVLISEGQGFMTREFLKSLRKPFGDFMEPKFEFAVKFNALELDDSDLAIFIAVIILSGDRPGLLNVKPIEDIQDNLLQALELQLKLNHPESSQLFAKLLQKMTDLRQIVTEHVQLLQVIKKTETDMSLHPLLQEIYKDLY
# Outline: as §1
# PPAR-delta = molecular target: T3, PPAR-delta (UniProt Q03181); assay: PPAR-delta transactivation assay (GAL4 chimera, luciferase reporter) in CV-1 cells
# T3 sequence (Q03181 1-441): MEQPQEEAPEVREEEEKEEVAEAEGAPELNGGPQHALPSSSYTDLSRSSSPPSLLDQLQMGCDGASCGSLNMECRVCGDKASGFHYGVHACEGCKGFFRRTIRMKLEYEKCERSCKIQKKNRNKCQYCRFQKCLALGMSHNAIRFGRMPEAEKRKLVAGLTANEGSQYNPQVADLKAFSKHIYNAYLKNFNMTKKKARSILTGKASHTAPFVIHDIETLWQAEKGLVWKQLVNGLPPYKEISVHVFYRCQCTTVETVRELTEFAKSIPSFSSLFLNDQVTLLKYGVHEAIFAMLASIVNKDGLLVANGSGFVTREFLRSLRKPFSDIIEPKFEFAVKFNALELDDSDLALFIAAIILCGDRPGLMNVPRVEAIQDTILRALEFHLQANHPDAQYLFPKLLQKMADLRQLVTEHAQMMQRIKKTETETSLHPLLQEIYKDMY
# Outline: as §1
Structure (SMILES),EC50 (PPAR-alpha),EC50 (PPAR-gamma),EC50 (PPAR-delta)
"O=C(O)C1Cc2cccc(S(=O)(=O)N3CCN(c4cccc(OC(F)(F)F)c4)CC3)c2C1 (stereo not drawn) [Example 113, 4-[4-(3-Trifluomethoxy-phenyl)-piperazine-1-sulfonyl]-indan-2-carboxylic acid]",5 to 100 µM,5 to 100 µM,< 5 µM
"O=C(O)C1Cc2cccc(S(=O)(=O)N3CCN(c4ccc(OCC(F)(F)F)cc4)CC3)c2C1 (stereo not drawn) [Example 114, 4-{4-[4-(2,2,2-Trifluoro-ethoxy)-phenyl]-piperazine-1-sulfonyl}-indan-2-carboxylic acid]",5 to 100 µM,5 to 100 µM,5 to 100 µM
"C[C@@H]1CN(c2cccc(OC(F)(F)F)c2)C[C@H](C)N1S(=O)(=O)c1cccc2c1CC(C(=O)O)C2 (stereo partly drawn) [Example 115, 4-[cis-2,6-dimethyl-4-(3-trifluoromethoxyphenyl)piperazin-1-ylsulfonyl]-2,3-dihydro-1H-indene-2-carboxylic acid]",> 100 µM,5 to 100 µM,< 5 µM
"C[C@H]1CN(S(=O)(=O)c2cccc3c2CC(C(=O)O)C3)[C@@H](C)CN1c1ccc(C(F)(F)F)cn1 (stereo partly drawn) [Example 116, 4-[2S,5S-dimethyl-4-(5-trifluoromethyl-pyridin-2-yl)-piperazine-1-sulfonyl]-indan-2(R,S)-carboxylic acid]",5 to 100 µM,5 to 100 µM,< 5 µM
"O=C(O)C1Cc2cccc(S(=O)(=O)N3C4CCCC3CN(c3ccc(OC(F)(F)F)cc3)C4)c2C1 (stereo not drawn) [Example 117, 4-[3-(4-trifluoromethoxy-phenyl)-3,9-diaza-bicyclo[3.3.1]nonane-9-sulfonyl]-indan-2-carboxylic acid]",5 to 100 µM,5 to 100 µM,< 5 µM
"C[C@@H]1CN(c2ccc(Cl)c(Br)c2)C[C@H](C)N1S(=O)(=O)c1cccc2c1CC(C(=O)O)C2 (stereo partly drawn) [Example 120, 4-(4-(3-bromo-4-chlorophenyl)-cis-2,6-dimethylpiperazin-1-ylsulfonyl)-2,3-dihydro-1H-indene-2-carboxylic acid]",> 100 µM,> 100 µM,< 5 µM
"C[C@@H]1CN(c2cc(F)c(C(F)(F)F)c(F)c2)C[C@H](C)N1S(=O)(=O)c1cccc2c1CC(C(=O)O)C2 (stereo partly drawn) [Example 121, 4-(4-(3,5-Difluoro-4-(trifluoromethyl)phenyl)-cis-2,6-dimethylsulfonyl)-2,3-dihydro-1H-indene-2-carboxylic acid]",5 to 100 µM,> 100 µM,< 5 µM
"C[C@@H]1CN(c2ccc(C(F)(F)F)c(Br)c2)C[C@H](C)N1S(=O)(=O)c1cccc2c1CC(C(=O)O)C2 (stereo partly drawn) [Example 122, 4-(4-(3-Bromo-4-(trifluoromethyl)phenyl)-cis-2,6-dimethylpiperazin-1-ylsulfonyl)-2,3-dihydro-1H-indene-2-carboxylic acid]",> 100 µM,> 100 µM,< 5 µM
"C[C@@H]1CN(c2cc(F)cc(F)c2Cl)C[C@H](C)N1S(=O)(=O)c1cccc2c1CC(C(=O)O)C2 (stereo partly drawn) [Example 123, 4-(4-(2-Chloro-3,5-difluorophenyl)-cis-2,6-dimethylpiperazin-1-ylsulfonyl)-2,3-dihydro-1H-indene-2-carboxylic acid]",> 100 µM,> 100 µM,5 to 100 µM
"C[C@@H]1CN(c2cc(F)c(Cl)c(F)c2)C[C@H](C)N1S(=O)(=O)c1cccc2c1CC(C(=O)O)C2 (stereo partly drawn) [Example 124, 4-(4-(4-Chloro-3,5-difluorophenyl)-cis-2,6-dimethylpiperazin-1-ylsulfonyl)-2,3-dihydro-1H-indene-2-carboxylic acid]",> 100 µM,> 100 µM,< 5 µM
"O=C(O)C1Cc2cccc(S(=O)(=O)N3C4CSCC3CN(c3ccc(OC(F)(F)F)cc3)C4)c2C1 (stereo not drawn) [Example 125, 4-(7-(4-(Trifluoromethoxy)phenyl)-3-thia-7,9-diazabicyclo|3.3.1|nonan-9-ylsulfonyl)-2,3-dihydro-1H-indene-2-carboxylic acid]",> 100 µM,> 100 µM,< 5 µM
"C[C@@H]1CN(c2ccc(Cl)cc2)C[C@H](C)N1S(=O)(=O)c1cccc2c1CC(C(=O)O)C2 (stereo partly drawn) [Example 126, 4-[4-(4-Chlorophenyl)-cis-2,6-dimethylpiperazin-1-ylsulfonyl]-2,3-dihydro-1H-indene-2-carboxylic acid]",> 100 µM,> 100 µM,< 5 µM
"C[C@@H]1CN(c2ccc(Cl)c(OC(F)(F)F)c2)C[C@H](C)N1S(=O)(=O)c1cccc2c1CC(C(=O)O)C2 (stereo partly drawn) [Example 131, 4-|4-(4-Chloro-3-trifluoromethoxyphenyl)-cis-2,6-dimethylpiperazine-1-ylsulfonyl|-2,3-dihydro-1H-indene-2-carboxylic acid]",> 100 µM,> 100 µM,< 5 µM
"C[C@@H]1CN(c2ccc(Cl)c(F)c2)C[C@H](C)N1S(=O)(=O)c1cccc2c1CC(C(=O)O)C2 (stereo partly drawn) [Example 132, 4-|4-(4-Chloro-3-fluorophenyl)-cis-2,6-dimethylpiperazin-1-ylsulfonyl|-2,3-dihydro-1H-indene-2-carboxylic acid]",> 100 µM,> 100 µM,< 5 µM
"COc1cc(N2C[C@@H](C)N(S(=O)(=O)c3cccc4c3CC(C(=O)O)C4)[C@@H](C)C2)ccc1Cl (stereo partly drawn) [Example 133, 4-|4-(4-Chloro-3-methoxyphenyl)-cis-2,6-dimethylpiperazine-1-ylsulfonyl|-2,3-dihydro-1H-indene-2-carboxylic acid]",> 100 µM,> 100 µM,< 5 µM
C[C@@H]1CN(c2ccc(Cl)c(C(F)(F)F)c2)C[C@H](C)N1S(=O)(=O)c1cccc2c1CC(C(=O)O)C2 (stereo partly drawn) [Example 134],> 100 µM,> 100 µM,< 5 µM
"Cc1cc(N2C[C@@H](C)N(S(=O)(=O)c3cccc4c3CC(C(=O)O)C4)[C@@H](C)C2)ccc1Cl (stereo partly drawn) [Example 135, 4-|4-(4-Chloro-3-methylphenyl)-cis-2,6-dimethylpiperazin-1-ylsulfonyl|-2,3-dihydro-1H-indene-2-carboxylic acid]",> 100 µM,> 100 µM,< 5 µM
"CCc1ccc(N2C[C@@H](C)N(S(=O)(=O)c3cccc4c3CC(C(=O)O)C4)[C@@H](C)C2)cc1 (stereo partly drawn) [Example 136, 4-|4-(4-Ethylphenyl)-cis-2,6-dimethylpiperazin-1-ylsulfonyl|-2,3-dihydro-1H-indene-2-carboxylic acid]",> 100 µM,> 100 µM,< 5 µM
"Cc1ccc(N2C[C@@H](C)N(S(=O)(=O)c3cccc4c3CC(C(=O)O)C4)[C@@H](C)C2)cc1C (stereo partly drawn) [Example 137, 4-|4-(3,4-Dimethylphenyl)-cis-2,6-dimethylpiperazin-1-ylsulfonyl|-2,3-dihydro-1H-indene-2-carboxylic acid]",> 100 µM,> 100 µM,< 5 µM
